Test results taken from publication PMC12298351, “Novel 3,19-(N-Phenyl-3-(4-fluorophenyl)-pyrazole) Acetal of Andrographolide Promotes Cell Cycle Arrest and Apoptosis in MDA-MB-231 Breast Cancer Cells” (Pharmaceuticals, 2025).

Key:
IGROV1 = settings: IGROV1, Ovarian
KM12 = settings: KM12, Colon
OVCAR-3 = settings: OVCAR-3, Ovarian
MOLT-4 = settings: MOLT-4, Leukemia
A498 = settings: A498, Renal
TK-10 = format: cell-based; settings: TK-10, Renal
CAKI-1 = settings: CAKI-1, Renal
PC-3 = settings: PC-3, Prostate
MDA-MB-468 = settings: MDA-MB-468, Breast
MALME-3M = settings: Melanoma
HCT-116 = format: cell-based; settings: HCT-116, Colon
SK-MEL-28 = settings: SK-MEL-28, Melanoma
UACC-257 = settings: UACC-257, Melanoma
HCT-15 = settings: HCT-15, Colon
HCC-2998 = settings: HCC-2998, Colon
U251 = settings: U251, CNS
SF-268 = settings: SF-268, CNS
SF-539 = settings: SF-539, CNS
SNB-75 = settings: SNB-75, CNS
[1] = read-out: 50% lethal concentration (LC50)
[2] = read-out: 50% lethal concentration (LC50), Leukemia
[3] = read-out: 50% lethal concentration (LC50), Breast

C=C1CCC2C3(C)COC(c4cn(-c5ccccc5)nc4-c4cccc(F)c4)OC3CCC2(C)C1CC=C1C(=O)OCC1O (stereo not shown) [1c]
GI50 (IGROV1): 2070 nM
Total growth inhibition (TGI) (IGROV1): 5.72 µM
CC50 (IGROV1; [1]): > 100 µM
GI50 (KM12): 2260 nM
Total growth inhibition (TGI) (KM12): 4.47 µM
Total growth inhibition (TGI) (HOP-62; HOP-62, Non-Small Cell Lung): 3.86 µM
GI50 (HOP-62; HOP-62, Non-Small-Cell Lung): 1740 nM
CC50 (HOP-62; read-out: 50% lethal concentration (LC50), HOP-62, Non-Small Cell Lung): 8.55 µM
GI50 (OVCAR-3): 1950 nM
Total growth inhibition (TGI) (OVCAR-3): 3.68 µM
CC50 (OVCAR-3; [1]): 6.94 µM
GI50 (MOLT-4): 690 nM
CC50 (MOLT-4; [1]): > 100 µM
Total growth inhibition (TGI) (NCI-H522; NCI-H522, Non-Small Cell Lung): 3.08 µM
GI50 (NCI-H522; NCI-H522, Non-Small-Cell Lung): 1520 nM
CC50 (NCI-H522; read-out: 50% lethal concentration (LC50), NCI-H522, Non-Small Cell Lung): 6.24 µM
GI50 (A498): 4.13 µM
Total growth inhibition (TGI) (A498): 18.4 µM
CC50 (A498; [1]): 53.3 µM
GI50 (TK-10): 1410 nM
GI50 (CAKI-1): 1560 nM
Total growth inhibition (TGI) (CAKI-1): 3.09 µM
CC50 (CAKI-1; [1]): 6.13 µM
GI50 (PC-3): 1970 nM
Total growth inhibition (TGI) (PC-3): 4.56 µM
CC50 (PC-3; [1]): > 100 µM
Total growth inhibition (TGI) (NCI-H460; NCI-H460, Non-Small Cell Lung): 3.59 µM
GI50 (NCI-H460; NCI-H460, Non-Small-Cell Lung): 1810 nM
GI50 (HL-60(TB); Leukemia): 760 nM
Total growth inhibition (TGI) (HL-60(TB); Leukemia): > 100 µM
CC50 (HL-60(TB); [2]): > 100 µM
GI50 (MDA-MB-468): 1630 nM
Total growth inhibition (TGI) (MDA-MB-468): 3.13 µM
CC50 (MDA-MB-468; [1]): 6.01 µM
GI50 (SR; Leukemia): 2200 nM
Total growth inhibition (TGI) (SR; Leukemia): > 100 µM
CC50 (SR; [2]): > 100 µM
GI50 (LOX IMVI; Melanoma): 1440 nM
Total growth inhibition (TGI) (LOX IMVI; Melanoma): 2.75 µM
CC50 (LOX IMVI; read-out: 50% lethal concentration (LC50), Melanoma): 5.25 µM
GI50 (T-47D; Breast): 1390 nM
Total growth inhibition (TGI) (T-47D; Breast): 4.07 µM
CC50 (T-47D; [3]): > 100 µM
GI50 (MALME-3M): 1870 nM
Total growth inhibition (TGI) (MALME-3M): 3.5 µM
GI50 (HCT-116): 3.48 µM
Total growth inhibition (TGI) (HCT-116): 1.59 µM
Total growth inhibition (TGI) (HOP-92; HOP-92, Non-Small Cell Lung): 3.03 µM
GI50 (HOP-92; HOP-92, Non-Small-Cell Lung): 1530 nM
CC50 (HOP-92; read-out: 50% lethal concentration (LC50), HOP-92, Non-Small Cell Lung): 6.02 µM
GI50 (SK-MEL-28): 1770 nM
Total growth inhibition (TGI) (SK-MEL-28): 3.35 µM
CC50 (SK-MEL-28; [1]): 6.36 µM
GI50 (UACC-257): 1930 nM
Total growth inhibition (TGI) (UACC-257): 3.87 µM
Total growth inhibition (TGI) (EKVX; Non-Small Cell Lung): 5.17 µM
GI50 (EKVX; Non-Small-Cell Lung): 2210 nM
CC50 (EKVX; read-out: 50% lethal concentration (LC50), Non-Small Cell Lung): 56 µM
GI50 (HCT-15): 1570 nM
Total growth inhibition (TGI) (HCT-15): 3.18 µM
CC50 (HCT-15; [1]): 6.45 µM
GI50 (HCC-2998): 1730 nM
Total growth inhibition (TGI) (HCC-2998): 3.2 µM
GI50 (U251): 1810 nM
Total growth inhibition (TGI) (U251): 5.61 µM
GI50 (HS 578T; Breast): 1660 nM
Total growth inhibition (TGI) (HS 578T; Breast): 3.18 µM
CC50 (HS 578T; [3]): 6.12 µM
GI50 (SF-268): 2270 nM
Total growth inhibition (TGI) (SF-268): 5.61 µM
CC50 (SF-268; [1]): 28.4 µM
GI50 (MDA-MB-231; MDA-MB-231, Breast): 1720 nM
Total growth inhibition (TGI) (MDA-MB-231; MDA-MB-231/ATCC, Breast): 3.29 µM
CC50 (MDA-MB-231; read-out: 50% lethal concentration (LC50), MDA-MB-231/ATCC, Breast): 6.28 µM
GI50 (SF-539): 1770 nM
Total growth inhibition (TGI) (SF-539): 3.17 µM
CC50 (SF-539; [1]): 5.68 µM
Total growth inhibition (TGI) (SNB-75): 3.55 µM
CC50 (SNB-75; [1]): 5.82 µM
GI50 (ACHN; Renal): 1800 nM
Total growth inhibition (TGI) (ACHN; Renal): 3.53 µM
CC50 (ACHN; read-out: 50% lethal concentration (LC50), Renal): 6.94 µM
